Measured values published in US11274214B2, “Composition of water based coating with a low content of volatile organic compounds and high resistance to dirt handle, and, use of water based coating” (OXITENO S.A. INDÚSTRIA E COMÉRCIO, priority 2017, dated 2022).

Key:
[1] = Physical and chemical properties of isopentyl succinate
[2] = Estimated Hansen solubility parameters and octanol/water partition coefficient of coalescents
Source text: In order to perform the comparative tests, two commercially available products, Texanol™ and OPTIFILM 300™, were used.

isopentyl succinate
Density [1]: 0.966 g/mL
Freezing point [1]: −25 °C
Relative evaporation rate [1]: 0.029
Volatile content according to method 24 ([1]; method 24): 50%
Solubility in water (suggested by octanol/water partition coefficients) [2]: low solubility in water
